One data set in a line: clinical. The protocol: Blood samples were collected pre-dose, and 0.5, 1, 1.5, 2, 2.5, 3, 3.5, 4, 5, 7, 9 and 24 hours after dosing.
The conditions of data set [1]: for release at buffer stage from enteric capsule: 50 mM phosphate buffer pH 6.8; for release at buffer stage from enteric capsule / release in acid stage from enteric capsule: Capsule 1 and Capsule 2; for release in acid stage from enteric capsule: 0.1 N HCl, 2 hours.
Data set [2] concerns fetal hemoglobin levels (Hb F). The settings on record: orally administered (8 mg/kg), repeatedly phlebotomized baboon (PCV less than 20%); cited from earlier work.
The conditions of data set [3]: 80 mg oral dose, 3 subjects, one value per subject, post-dose; cited from earlier work.
The mark [4] stands for this setting: human, blood, subcutaneous, 60 mg.

Where “and” joins values, the source holds several entries; their conditions need not be identical. Identical values can stand only once. Like-named read-outs stand apart in the source and are kept apart here.

In the case of `Nc1ncn([C@@H]2O[C@H](CO)[C@@H](O)[C@H]2O)c(=O)n1` [Group 1 (azacitidine, SQ), azacitidine], in “clinical” (setting [4]), the AUC(0-t) is 761 ng·h/mL, the Cmax stood at 384 ng/mL and the Tmax came to 0.6 h.

`Nc1ncn([C@@H]2O[C@H](CO)C(O)[C@@H]2O)c(=O)n1` (some centres unmarked) [azacitidine]: in data set [1], the “release at buffer stage from enteric capsule” value is given as “rapidly released” and the “release in acid stage from enteric capsule” value is reported as “slowly released”. In addition, the “elevation in fetal hemoglobin levels (Hb F)” value in data set [2] is listed as “no elevation”. For the same compound, the Tmax in data set [3] was 1.5 h and 2.0 h and 1.0 h.

Consider `O=C1N[C@H](O)CCN1[C@@H]1O[C@H](CO)[C@@H](O)C1(F)F` [cedazuridine], for which the “effect of co-administration on azacitidine PK” value in the data set “clinical” (60 mg oral delayed release azacitidine with vs without 60 mg cedazuridine) is “increased Tmax, Cmax and AUC for azacitidine”. In data set [1], the “release at buffer stage from enteric capsule” value was “rapidly released” and the “release in acid stage from enteric capsule” value is “slowly released”. Also, the “stability in dissolution medium” value in data set [1] (pH 6.8) is recorded as “degradation is minimal”.

One may read the AUC(0-t) as exposure summed from dosing to a finite time, without extrapolation to infinity. A lower AUC(0-t) goes with low exposure. A word on the Cmax: it is the maximum level reached in the sampled fluid or tissue. As usually defined, the Tmax is the time from dosing to the highest level.
